Measurements taken from patent US8063077B2, “Factor Xa inhibitors” (Millennium Pharmaceuticals, Inc., priority 2006, dated 2011).

Experiments:
[1] = target: T1, human plasma protein factor Xa (Homo sapiens, UniProt P00742); experiment: Factor Xa IC50 determination, cleavage of paranitroanilide substrate S-2765; format: biochemical; conditions: factor Xa 1 nM, S2765 100 μM, Tris buffered saline pH 7.4, 5% DMSO
T1 construct: The human plasma protein factor Xa was purchased from Haematologic Technologies; purchased Haematologic Technologies (Essex Junction, Vt.); host or cells: human plasma
Text: This example illustrates methods for evaluating the compounds of the invention, along with results obtained for such assays. The in vitro and in vivo human Factor Xa activities of the inventive compounds can be determined by various procedures known in the art, such as a test for their ability to inhibit the activity of human plasma Factor Xa. […] The IC50 value is the concentration (in nM) of the compound required to provide 50% inhibition of human Factor Xa proteolytic activity.
An in vitro assay for detecting and measuring inhibition activity against Factor Xa is as follows:
The substrate S-2765 (Z-D-Arg-Gly-Arg-pNA•HCl) was obtained from Diapharma (West Chester, Ohio).
The human plasma protein factor Xa was purchased from Haematologic Technologies (Essex Junction, Vt.).
All assays, which are performed in 96-well microtiter plates, measure proteolytic activity of the enzyme (factor Xa) by following cleavage of a paranitroanilide peptide substrate. The assay buffer used for proteolytic assays was Tris buffered saline (20 mM Tris, 150 mM NaCl, 5 mM CaCl2, 0.1% Bovine serum albumin (BSA), 5% Dimethly Sulfoxide (DMSO) pH 7.4). In a 96-well microtiter plate, inhibitor was serially diluted to give a range of final concentrations from 0.01 nM to 10 μM. Duplicate sets of wells were assayed and control wells without inhibitor were included. Enzyme was added to each well, (factor Xa concentration=1 nM), the plate was shaken for 5 seconds and then incubated for 5 minutes at room temperature. S2765 was added (100 μM final) and the plate was shaken for 5 seconds (final volume in each well was 200 μl). The degree of substrate hydrolysis was measured at 405 nm on a Thermomax plate reader (Molecular Devices, Sunnyvale, Calif.) for 2 minutes. The initial velocities of substrate cleavage (mOD/min), for each range of inhibitor concentrations, were fitted to a four parameter equation using Softmax data analysis software. The parameter C, derived from the resulting curve-fit, corresponded to the concentration for half maximal inhibition (IC50).

[2] = Pharmacokinetics of Compound 10 in dog (IV and PO), plasma by LC/MS/MS; format: in vivo, male beagle dogs; design: AUC/D (dose-normalized AUC(0-inf)): unit not given here; conditions: mean ± SD
Procedure: (§1) For the dog and monkey study, Compound 10 was also used. An IV and PO dose of Compound 10 (1.0 and 5.0 mg/kg, respectively) was prepared. The IV dose was formulated similarly to that used in the rat study (50% PEG300 in water). The PO dose was suspended in 0.5% methylcellulose at a concentration of 1.0 mg/mL with a final pH of approximately 3.50.
(§2) A total of six male Sprague-Dawley rats (n=3/dosing group) from Charles River Laboratories (Hollister, Calif.), three male beagle dogs from Marshall BioResources (North Rose, N.Y.) and three male rhesus monkeys were utilized. […]
(§3) All animals were dosed based on individual weights with a PO gavage volume of 5.0 mL/kg and an IV bolus dose volume of 1.0 mL/kg. […] At collection times, urine volume and water consumption was recorded. […]
(§4) Plasma and urine samples were analyzed for Compound 10 concentration using a liquid chromatography tandem mass spectrometry (LC/MS/MS). […] The peak areas of the m/z 411→250 product ion (Compound 10) were measured against those of the m/z 470→342 product ion (N-(2-(5-chloropyridin-2-ylcarbaomoyl)-4-methoxyphenyl)-4-(N,N-dimethylcarbamimidoyl)-2-fluorobenzamide) in positive ion mode. […]
(§5) Sample Compound 10 concentrations below the lower limit of quantitation (LLQ) were reported as <0.500 ng/mL. […]

[3] = Pharmacokinetics of Compound 10 in rat (IV and PO), plasma and urine by LC/MS/MS; format: in vivo, male Sprague-Dawley rats; design: AUC/D (dose-normalized AUC(0-inf)): unit not given here; conditions: mean ± SD
Procedure: Compound 10 was used in the rat investigation. An intravenous (IV) and oral (PO) dose of Compound 10 (1.0 and 10 mg/kg, respectively) was prepared. The IV dose was solubilized in 50% PEG300 to yield a final concentration of 1.0 mg/mL with a final pH of 5.13. The PO dose was suspended in 0.5% methylcellulose at a concentration of 2.0 mg/mL with a final pH of 2.70.
A total of six male Sprague-Dawley rats (n=3/dosing group) from Charles River Laboratories (Hollister, Calif.), three male beagle dogs from Marshall BioResources (North Rose, N.Y.) and three male rhesus monkeys were utilized. All surgical procedures in rat (femoral and jugular vein catheterizations) were performed 8 days prior to utilization in the study and rats were acclimated in-house 5 days prior to utilization. Dogs were acclimated in-house at least seven days prior to utilization and were returned to the colony at the completion of the study. Monkey studies were conducted by an off-site contract laboratory.
All animals were fasted from the afternoon prior to study initiation to two hours post-dose (approximately 18 hours). Water was provided ad libitum. All animal rooms were on a 12 hour light-dark cycles (6 A.M. to 6 P.M.). On the morning of experimentation, animals were weighed. Rat femoral and jugular (IV only) vein blood lines were exteriorized and attached to access ports. […]
as §3, §4, §5

[4] = Pharmacokinetics of Compound 10 in monkey (IV and PO), plasma by LC/MS/MS; format: in vivo, male rhesus monkeys; design: AUC/D (dose-normalized AUC(0-inf)): unit not given here; conditions: mean ± SD
Procedure: as §1, §2, §3, §4, §5

T1 sequence (P00742 235-488 limits assumed): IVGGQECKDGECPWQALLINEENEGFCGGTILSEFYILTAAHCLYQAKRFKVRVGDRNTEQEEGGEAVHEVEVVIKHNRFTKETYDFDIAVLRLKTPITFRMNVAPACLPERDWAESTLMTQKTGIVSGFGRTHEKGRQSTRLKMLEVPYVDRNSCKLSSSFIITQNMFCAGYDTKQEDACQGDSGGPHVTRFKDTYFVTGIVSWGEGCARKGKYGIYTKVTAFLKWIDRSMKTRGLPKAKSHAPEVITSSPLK
T1 sequence (P00742 41-179 partner limits assumed): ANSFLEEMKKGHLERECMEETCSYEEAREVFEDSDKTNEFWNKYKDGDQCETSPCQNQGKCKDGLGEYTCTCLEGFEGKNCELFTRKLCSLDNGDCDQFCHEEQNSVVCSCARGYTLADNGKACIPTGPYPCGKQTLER

O=C(NCc1cn(-c2ccc(-n3ccccc3=O)cc2N2CCSCC2)cn1)c1ccc(Cl)s1 [Compound 24, 5-Chloro-N-((1-(4-(2-oxopyridin-1(2H)-yl)-2-thiomorpholinophenyl)-1H-imidazol-4-yl)methyl)thiophene-2-carboxamide]
IC50 [1]: ≤ 100 nM

O=C(NCc1cn(-c2ccc(-n3cccc(O)c3=O)cc2)cn1)c1ccc(Cl)s1 [Compound 42, 5-chloro-N-((1-(4-(3-hydroxy-2-oxopyridin-1(2H)-yl)phenyl)-1H-imidazol-4-yl)methyl)thiophene-2-carboxamide]
IC50 [1]: ≤ 100 nM

CS(=O)(=O)c1cc(-n2ccccc2=O)ccc1-n1cnc(CNC(=O)c2ccc(Cl)s2)c1 [Compound 22, 5-Chloro-N-((1-(2-(methylsulfonyl)-4-(2-oxopyridin-1(2H)-yl)phenyl)-1H-imidazol-4-yl)methyl)thiophene-2-carboxamide]
IC50 [1]: ≤ 100 nM

O=C(NCc1cn(-c2ccc(-n3ccccc3=O)cc2)cn1)c1ccc(Cl)s1 [Compound 10, 5-Chloro-N-((1-(4-(2-oxopyridin-1(2H)-yl)phenyl)-1H-imidazol-4-yl)methyl)thiophene-2-carboxamide]
bioavailability ([2]; male, beagle, plasma, oral 5 mg/kg vs intravenous 1 mg/kg, read-out: F (absolute bioavailability)): 68.5 ± 15.5% | AUC/D (dose-normalized AUC(0-inf)) ([2]; oral, 5 mg/kg, n=3): 1095 ± 295 | Dose excreted unchanged in urine ([3]; intravenous, 1 mg/kg, urine to 24 hours post-dose): 0.248 ± 0.019% | bioavailability ([3]; male, Sprague-Dawley, plasma, oral 10 mg/kg vs intravenous 1 mg/kg, read-out: F (absolute bioavailability)): 127 ± 23.1% | AUC/D (dose-normalized AUC(0-inf)) ([3]; oral, 10 mg/kg, n=3): 6859 ± 1249 | IC50 [1]: ≤ 100 nM | bioavailability ([4]; male, rhesus, rhesus monkey, plasma, oral 5 mg/kg vs intravenous 1 mg/kg, read-out: F (absolute bioavailability)): 71.6 ± 18.1% | AUC/D (dose-normalized AUC(0-inf)) ([4]; oral, 5 mg/kg, n=3): 8430 ± 3449

C/N=c1\ccccn1-c1ccc(-n2cnc(CNC(=O)c3ccc(Cl)s3)c2)cc1 [Compound 34, (E)-5-chloro-N-((1-(4-(2-(methylimino)pyridin-1(2H)-yl)phenyl)-1H-imidazol-4-yl)methyl)thiophene-2-carboxamide]
IC50 [1]: ≤ 100 nM

COc1ccc(/N=c2\ccccn2-c2ccc(-n3cnc(CNC(=O)c4ccc(Cl)s4)c3)cc2)cc1 [Compound 35, (E)-5-chloro-N-((1-(4-(2-(4-methoxyphenylimino)pyridin-1(2H)-yl)phenyl)-1H-imidazol-4-yl)methyl)thiophene-2-carboxamide]
IC50 [1]: ≤ 100 nM

CC(=O)/N=c1\ccccn1-c1ccc(-n2cnc(CNC(=O)c3ccc(Cl)s3)c2)cc1 [Compound 36, (E)-N-((1-(4-(2-(acetylimino)pyridin-1(2H)-yl)phenyl)-1H-imidazol-4-yl)methyl)-5-chlorothiophene-2-carboxamide]
IC50 [1]: ≤ 100 nM

O=C1CN(c2ccc(-n3cnc(CNC(=O)c4ccc(Cl)s4)c3)cc2)C(=O)CN1 [Compound 20, 5-Chloro-N-((1-(4-(2,5-dioxopiperazin-1-yl)phenyl)-1H-imidazol-4-yl)methyl)thiophene-2-carboxamide]
IC50 [1]: ≥ 500 nM
